Assay: gradient 5% acetonitrile 3 min, to 50% in 2 min, to 85% in 15 min, held 3 min, 100 µL/min
Conditions: column: Zorbax Extend-C18 2.1 x 50 mm; eluents: water / acetonitrile, 0.1% formic acid
How it was run: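 Over 3 months, pure standards in mixtures of ~100 molecules were run by HPLC coupled to a quadrupole time-of-flight mass spectrometer in positive and negative ionization mode. The column was a Zorbax Extend-C18 (2.1 × 50 mm, 1.8 μm) at 100 μL/min, eluted with water and acetonitrile each holding 0.1% formic acid, with 40 μL dead and 900 μL dwell volumes. Retention time was determined from adduct peaks chosen by software and checked manually.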

SMILES | RP-LC retention time [s]
Cc1occc1C(=O)N1CCCn2ccnc2C1c1cnn(C)c1 (stereo unspecified) | 573
Cc1cc(NS(=O)(=O)c2cc(-c3[nH]ncc3C(=O)N3CCCCC3)oc2C)ccc1F | 783
COc1ccc(CNC(=O)CN2C(=O)NC3(CCC(C(C)(C)C)CC3)C2=O)cc1OC (stereo unspecified) | 863
Cc1noc(C2CN(C(=O)c3n[nH]c4ccccc34)CC23CCN(C)CC3)n1 (stereo unspecified) | 1010
O=C(NC1CC1)C1CCN(c2cnn(Cc3ccccc3)c(=O)c2)C1 (stereo unspecified) | 664
CCn1c(N2CCCC(C(=O)NCC3CCN(Cc4cccc(F)c4)CC3)C2)cc(=O)n(C)c1=O (stereo unspecified) | 635
CCc1ccc(CNC(=O)c2cc3c(=O)n(C)ccc3n2C)cc1 | 746
O=C(NCCN1CCCC1)c1c2c(nc3ccccc13)C(=O)N(C1CCCCC1)C2 | 598
CCOc1nccnc1N1CCC(N(C)C(=O)c2ccc(C)nc2)C1 (stereo unspecified) | 597
Cc1cccc(NC(=O)C2CCCN2S(=O)(=O)c2cc3c(cc2C)NC(=O)CO3)c1 (stereo unspecified) | 763
Cc1ccc(C(=O)N2CCC(Nc3ncnc4c3CCC4)CC2)cn1 | 583
Cc1oc2c(c1C(=O)Nc1cccc(C(F)(F)F)c1)C1=NCCN1C=N2 | 652
O=C(Nc1ccccc1)OC1CCCC(NC(=O)C2(c3ccccc3)CCOCC2)C1 (stereo unspecified) | 857
O=C(OCc1cc(-c2ccc3c(c2)OCCO3)on1)c1ccc(Br)o1 | 978
CS(=O)(=O)N[C@H]1C[C@@H]2C[C@H]1N(C(=O)Cc1c(F)cccc1Cl)C2 | 717
Nc1cc(C2CCN(C(=O)NCCc3ccccc3)CC2)no1 | 668
CCCNC(=O)N1CCCCC1c1nc(C2CC2)n[nH]1 (stereo unspecified) | 610
Cc1ccccc1CNC(=O)Cn1c(C)cc(-c2nnc(C3CCC3)o2)c1C | 902
COc1cn(CC(=O)Nc2cc(C)on2)c(CN2CCCCC2)cc1=O | 566
CCCN(CC1CCOC1)C(=O)Nc1ccccc1OCC (stereo unspecified) | 903
CC1=C(c2ccc(F)cc2)S(=O)(=O)N=C1N1CCC(C(=O)NC(C)C)CC1 | 741

SMILES | RP-LC retention time [s]
CCc1cc(=O)n(CC(=O)Nc2ccc(OC)c(Cl)c2)c(N2CCOCC2)n1 | 772
CC(=O)c1cccc(NC(=O)Cn2cc3c(n2)CCCC3)c1 | 760
COc1ccc(CN2CC(F)(F)C[C@H]2c2nnc(-c3cnccn3)o2)cc1C | 912
Cn1c(=O)c2c(ncn2CC(=O)N2CCC(c3nc(C4CCOCC4)no3)CC2)n(C)c1=O | 611
CCOC(=O)CCNC(=O)N1CCc2c([nH]c3ccccc23)C1c1ccccc1F (stereo unspecified) | 941
CCCN1CCN(C(=O)CN2CCN(Cc3ccccc3)C2=O)CC1 | 578
CCn1c(C(=O)NCc2ccc(F)cc2)cc2sc(Cl)cc21 | 1140
CC(=O)Nc1onc(C)c1-c1ccc(C)c(S(=O)(=O)N2CCN(c3ccccn3)CC2)c1 | 628
COC(=O)c1nnn(-c2ccc(C)c(Cl)c2)c1C(=O)OC | 965
CN(C)C(=O)c1csc(N2CCN(c3cccc(Cl)c3)CC2)n1 | 949
COC(=O)c1c(NCCc2ccc(Cl)cc2)c2ccc(F)cc2[nH]c1=O | 795
CC(C)CNC(=O)N1CC(n2cc(C(=O)N3CCOCC3)nn2)C1 | 607
O=C(c1ccccc1Br)N1CCN(Cc2noc3ccccc23)CC1 | 760
COc1ccc(NC(=O)Cn2nc(C(F)(F)F)c(Br)c2C)cc1OC | 958
CC(C)NC(=O)C1Cc2cc(C(F)(F)F)ccc2N2CCN(c3ccccc3Cl)CC12 (stereo unspecified) | 1200
Cc1nc2ccn(Cc3ccco3)c(=O)c2cc1C(=O)NCc1ccc2c(c1)OCO2 | 722
CCCCN1N=C(C(=O)N2CCCCCC2)S(=O)(=O)c2ccc(C)cc21 | 1050
O=C(Nc1nccs1)C1CCN(Cc2noc(-c3ccc(F)cc3)n2)CC1 | 643
Cc1cccc(NC(=O)C2CCCN(S(=O)(=O)c3c[nH]c(C(=O)N4CCCCCC4)c3)C2)c1C (stereo unspecified) | 883
CCOC(=O)Cn1cc(S(=O)(=O)N2CCCCC2)ccc1=O | 762
Cc1c(C2CCN(C(=O)Cc3ccc(F)cc3)CC2)noc1N | 698

SMILES | RP-LC retention time [s]
Cn1cnnc1SCCNC(=O)Cc1noc2ccccc12 | 591
O=C(C1CCC1)N1CCC(c2nc(C3CCOCC3)no2)C1 (stereo unspecified) | 671
CSc1cccc(Nc2c(C(=O)N3CCSCC3)cnc3nc(C)ccc23)c1 | 581
Cc1cc(=O)n(CCc2ccccc2)c(N2CCSCC2)n1 | 897
CC1(C)COc2ccc(NC(=O)COc3ccccc3F)cc2NC1=O | 825
CCOc1ccccc1NC(=O)N1CCC(n2c(C(F)(F)F)nc3cccnc32)CC1 | 976
Cc1cccc2c(C(N)=O)cc(=O)[nH]c12 | 596
O=C(NCc1ccccn1)C1(CCO)CCN(c2ncccn2)C1 (stereo unspecified) | 522
COc1ccc(N2CCN(Cc3nc(-c4ccc(N5CCOCC5)nc4)no3)CC2)cc1 | 688
O=C(c1nc2ccccn2c1-c1ccsc1)N1CCCCC1 | 665
CC(C)NC(=O)c1ccc2c(c1)CCN2C(=O)C1CCC1 | 764
CN(C)C(=O)COC(=O)Cc1ccc(OC(=O)c2ccc(N=C(N)N)cc2)cc1 | 651
CC(C)OCCCNC(=O)C1CCN(c2ncnc3c2oc2ccccc23)CC1 | 662
CC(C)(C)CC(=O)NCCn1c(=O)n(Cc2ccccc2)c2cccnc21 | 786
O=C(NCC(O)c1ccc(C(F)(F)F)cc1)C1(c2ccccc2)CCOCC1 (stereo unspecified) | 785
CCCNc1cc(N2CCCC(CCC(=O)N3CCC(COC)CC3)C2)ncn1 (stereo unspecified) | 649
CN=C(NC#N)NCCSCc1csc(N=C(N)N)n1 | 616
CC1CCN(S(=O)(=O)c2ccc3nc(N4CCN(C(=O)c5ccco5)CC4)ccc3c2)CC1 | 852
FC(F)(F)Oc1ccccc1CN1CCC[C@H]1c1nc(C2CCOCC2)n[nH]1 | 597

Next, values leading:

RP-LC retention time [s] | SMILES
934 | Cc1noc(-c2ccc(OC3CN(C(=O)C(C)c4ccccc4)C3)cc2)n1 (stereo unspecified)
1030 | Cc1ccc(-c2cc(NC(=O)Cc3ccccc3C)on2)s1
599 | O=C(CNC(=O)c1cccs1)Nc1nc2ccccc2[nH]1
903 | CC(C)N1C(=O)C(C)(C(=O)Nc2ccc(Cl)cc2)Oc2cccnc21 (stereo unspecified)
905 | Cn1nc(-c2nnc(-c3ccccc3)o2)c2c1CCN(S(=O)(=O)c1cccc3nsnc13)C2
611 | Cc1nnc(-c2nnc(N3CCN(c4ccccn4)CC3)c3ccccc23)o1
862 | O=c1c2nc(-c3ccc(F)cc3F)cn2ccn1-c1ccc(F)cc1
922 | COCCNc1c(-c2ccccc2)nc2sc(C(=O)N3CCCC3)c(C)n12
853 | CC(c1ccccc1)N1CC(=O)N(c2ccc(Cl)cc2)[C@@H]2CS(=O)(=O)C[C@@H]21 (stereo partly specified)
1030 | CCCN1C(=O)c2cc(S(=O)(=O)Nc3ccccc3F)ccc2Oc2cccnc21
932 | COCc1nc(-c2ccc(OC3CCN(C(=O)C4(c5ccccc5)CC4)C3)cc2)no1 (stereo unspecified)
787 | Cc1ccc(Nc2c(-c3ccccc3)nc3ccc(Cl)cn23)cc1
887 | COC(=O)c1cccc(Nc2c(-c3ccc(SC)cc3)nc3cnccn23)c1
632 | O=C(Cn1cc(-c2ccc(F)cc2)oc1=O)NC1CCN(Cc2ccccc2)CC1
692 | O=C(NCCc1c[nH]c2ccccc12)c1nnc2n(c1=O)CCN2c1ccc(F)cc1
720 | CCCCOC(=O)c1ccc(Nc2c(C(=O)N(CC)CC)cnc3nc(C)ccc23)cc1
1120 | COc1cccc(-c2noc(C3CCCN3C(=O)Nc3ccc(C)cc3Cl)n2)c1 (stereo unspecified)
745 | Cc1ccc(NC(=O)N2CCC3(C2)C(=O)Nc2ccccc23)cc1 (stereo unspecified)
677 | CC(C)NC(=O)c1ccc(-c2nc3cc(NS(=O)(=O)Cc4ccccc4F)ccc3n2C)cc1
966 | Cc1nn(-c2ccccc2)c2sc(C(=O)NC(C)C)cc12
748 | COc1ccc(Nc2c(-c3ccc(Cl)cc3)nc3ncccn23)cc1OC
854 | CCOC(=O)c1nc(Nc2cccc(OC)c2)c2ccccc2n1
767 | CCN1C(=O)c2cccnc2Sc2cc(CNC(=O)Cc3ccccc3F)ccc21
1270 | O=S(=O)(c1ccc2c(c1)CCCC2)N1CCCC1c1nc(-c2ccccc2)no1 (stereo unspecified)
670 | CCN1C(=O)c2ccccc2Oc2ccc(C(=O)NCc3ccc(N(C)C)cc3)cc21
798 | Cc1onc(-c2cccnc2)c1C(=O)Nc1ccc(Br)cc1F
554 | O=C(c1cccc2ccccc12)N1CCN(c2ccc(Nc3ccncc3)nn2)CC1
920 | CCc1nc2c(NC(=O)c3ccc(C)cc3C)cccn2n1
618 | Cc1ccc(-c2nc3cnccn3c2NCCC(=O)NC(C)C)cc1
952 | COc1ccc(-c2nc(CNC(=O)c3ccc(-c4noc(C5CC5)n4)cc3)no2)cc1
